Results published in article PMC7575488, “Phase 1 dose-escalation study of a novel oral PI3K/mTOR dual inhibitor, LY3023414, in patients with cancer” (Investigational New Drugs, 2020).
Like-named read-outs stand apart in the source and are kept apart here. Marks after values point to notes of the source that are not given here.

Columns and labels:
advanced malignancies = experiment: Antitumor activity, tumor response by RECIST v1.1; type: in vivo, human
Experimental: Tumor response was assessed by computed tomography scans or magnetic resonance imaging according to RECIST v1.1 [18] at baseline and thereafter every 6 weeks until patients discontinued from the study. The assessment included all patients who received ≥1 dose of study drug.

[1] = Blood pharmacokinetics (dried blood spot LC-MS/MS, non-compartmental analysis); type: in vivo, human; conditions: for CL/F: based on AUC0-∞; for CL/F (CLss/F): Cycle 1 Day 15 (multiple dose, steady state); for Tmax / half-life / Vd/F / AUC(0-inf) / Cmax / AUC(0-t): human, oral; for Vd/F: read-out: Vz/F; for AUC(0-t): tlast 12 h (AUCτ), read-out: AUC0-tlast
Experimental: For PK assessment, blood samples were collected at pre dose and 0.5, 1, 2, 4, 8, and 12 h post dose on 2 occasions: (i) on Day 1 of Cycle 1 (single dose), and (ii) on Day 15 of Cycle 1 (multiple dose). For PD assessment, blood samples were collected at pre dose and 0.5, 1, 2, and 4 h post dose on 2 occasions: (i) on Day 1 of Cycle 1 (single dose), and (ii) on Day 15 of Cycle 1 (multiple dose).
Blood concentrations of LY3023414 were assayed using a validated dried blood spot liquid chromatography-mass spectrometry/mass spectrometry method at a designated laboratory. The PK parameter estimates for LY3023414 were calculated by standard non-compartmental methods of analysis using Phoenix WinNonlin® 8.0 (Certara, L.P.; Princeton, NJ, USA). The primary parameters for analysis were maximum observed blood concentration (Cmax), time of Cmax (tmax), area under the blood concentration-time curve from time zero to the last measurable blood concentration (AUC0-tlast), and area under the blood concentration-time curve from time zero to infinity (AUC0-∞) of LY3023414. Other non-compartmental parameters, such as half-life (t1/2), apparent total body clearance (CL/F) on Cycle 1 Day 1, apparent total body clearance at steady state (CLss/F) on Cycle 1 Day 15, and apparent volume of distribution during the terminal phase (Vz/F), were also assessed.

tumor xenograft models = conditions: cited from earlier work
[2] = whole blood, 150 mg, 150 mg BID, Cycle 1 Day 1 (single dose), blood, N = 3, geometric mean (% CV)
[3] = whole blood, 150 mg, 150 mg BID, Cycle 1 Day 15 (multiple dose), blood, N = 3, geometric mean (% CV)
[4] = whole blood, 200 mg, 200 mg BID, Cycle 1 Day 1 (single dose), blood, N = 9, geometric mean (% CV)
[5] = whole blood, 200 mg, 200 mg BID, Cycle 1 Day 15 (multiple dose), blood, N = 7, geometric mean (% CV)

In the case of `CO[C@@H](C)Cn1c(=O)n(C)c2cnc3ccc(-c4cncc(C(C)(C)O)c4)cc3c21` [LY3023414], the “Best overall response of stable disease” value (advanced malignancies; 150 mg) is reported as 3 patients, the “Best overall response of stable disease” value (advanced malignancies; 200 mg) is reported as 2 patients and the “Progressive disease as best response” value (advanced malignancies; 200 mg BID) is reported as 4 patients. The Disease control rate (advanced malignancies; 5 of 9 evaluable patients) was 55.6%, the “Complete response (CR) or partial response (PR)” value (advanced malignancies; 9 evaluable patients, RECIST v1.1) was “No complete response (CR) or partial response (PR)” and the “Best overall response of stable disease” value (advanced malignancies; both dose levels, 9 evaluable patients) was 5 patients. For the same compound, the CL/F ([1]; 150 mg BID, Cycle 1 Day 1 (single dose), N = 3, geometric mean (% CV)) was 49.2 (19) L/hr, the “CL/F (CLss/F)” value ([1]; 150 mg BID, N = 3, geometric mean (% CV)) was 30.4 (45) L/hr and the CL/F ([1]; 200 mg BID, Cycle 1 Day 1 (single dose), N = 8, geometric mean (% CV 29)) was 48.5^c (29) L/hr. The “CL/F (CLss/F)” value ([1]; 200 mg BID, N = 7, geometric mean (% CV)) was 48.6 (33) L/hr, the Tmax ([1]; whole blood (dried blood spot), 200 mg, post administration, each dose level (150 and 200 mg), read-out: median tmax) was 1 to 3 h and the half-life ([1]; whole blood (dried blood spot), Days 1 and 15 in Cycle 1, each dose level, read-out: geometric mean t1/2 (converted)) was roughly 2 h. For the same compound, the Vd/F ([1]; whole blood, 150 mg, 150 mg BID, Cycle 1 Day 1 (single dose), N = 3, geometric mean (% CV)) was 113 L, the AUC(0-inf) [1, 2] was 3050 ng·h/mL and the Cmax [1, 2] was 792 ng/mL. For the same compound, the half-life ([1]; whole blood, 150 mg, 150 mg BID, Cycle 1 Day 1 (single dose), blood, N = 3, geometric mean (range), read-out: t1/2 (converted)) was 1.59 h, the Tmax ([1]; whole blood, 150 mg, 150 mg BID, Cycle 1 Day 1 (single dose), blood, N = 3, median (range), read-out: tmax) was 2.93 h and the AUC(0-t) [1, 2] was 3000 ng·h/mL. For the same compound, the Vd/F ([1]; whole blood, 150 mg, 150 mg BID, Cycle 1 Day 15 (multiple dose), N = 3, geometric mean (% CV)) was 79.3 L, the AUC(0-inf) [1, 3] was 5010 ng·h/mL and the Cmax [1, 3] was 1570 ng/mL. For the same compound, the half-life ([1]; whole blood, 150 mg, 150 mg BID, Cycle 1 Day 15 (multiple dose), blood, N = 3, geometric mean (range), read-out: t1/2 (converted)) was 1.81 h, the Tmax ([1]; whole blood, 150 mg, 150 mg BID, Cycle 1 Day 15 (multiple dose), blood, N = 3, median (range), read-out: tmax) was 1 h and the AUC(0-t) [1, 3] was 4920 ng·h/mL. It also gave a Vd/F ([1]; whole blood, 200 mg, 200 mg BID, Cycle 1 Day 1 (single dose), N = 8, geometric mean (% CV 35)) of 136 L, an AUC(0-inf) ([1]; whole blood, 200 mg, 200 mg BID, Cycle 1 Day 1 (single dose), blood, N = 8, geometric mean (% CV 29)) of 4120 ng·h/mL and a half-life ([1]; whole blood, 200 mg, 200 mg BID, Cycle 1 Day 1 (single dose), blood, N = 8, geometric mean (range 1.52–3.15), read-out: t1/2 (converted)) of 1.94 h. For the same compound, the Cmax [1, 4] was 1020 ng/mL, the Tmax ([1]; whole blood, 200 mg, 200 mg BID, Cycle 1 Day 1 (single dose), blood, N = 9, median (range), read-out: tmax) was 1.95 h and the AUC(0-t) [1, 4] was 4140 ng·h/mL. For the same compound, the Vd/F ([1]; whole blood, 200 mg, 200 mg BID, Cycle 1 Day 15 (multiple dose), N = 7, geometric mean (% CV)) was 129 L, the AUC(0-inf) [1, 5] was 4210 ng·h/mL and the Cmax [1, 5] was 1010 ng/mL. For the same compound, the half-life ([1]; whole blood, 200 mg, 200 mg BID, Cycle 1 Day 15 (multiple dose), blood, N = 7, geometric mean (range), read-out: t1/2 (converted)) was 1.83 h, the Tmax ([1]; whole blood, 200 mg, 200 mg BID, Cycle 1 Day 15 (multiple dose), blood, N = 7, median (range), read-out: tmax) was 1.97 h and the AUC(0-t) [1, 5] was 4100 ng·h/mL. For the same compound, the Antitumor activity (tumor xenograft models) was “potent antitumor activity”.
